From patent US20260108480A1, “METHODS FOR INDUCING PROLIFERATION OF STEM CELLS” (UNIVERSITY OF PITTSBURGH-OF THE COMMONWEALTH SYSTEM OF …, priority 2022, published 2026)
“Also recorded” adds a separate entry of the source.

Legend:
[1] = test system: primary PRX1 expressing SSCs isolated from the calvarial sutures of PRX1-creER-EGFP mice; assay: MTT proliferation assay of primary PRX1 expressing cells isolated from calvarial sutures; type: cell-based, mouse; details: for ability to induce proliferation of primary PRX1 expressing SSCs (screen of 5 WNT inhibitors): most effective concentrations of previous studies, FIGS. 22A-22B
From the text: (§1) FIGS. 22A-22H. […] (22A-22B) MTT proliferation assays of primary PRX1 expressing cells isolated from the calvarial sutures of PRX1-creER-EGFP+/+ mice. […] (22C) MTT proliferation assays of immortalized PRX1 expressing cells isolated from the calvarial sutures of PRX1-creER-EGFP+/+ mice. […] (22D-22F) Quantitative RT-PCR of osteoblast differentiation genes of immortalized PRX1 expressing cells isolated from the calvarial sutures of PRX1-creER-EGFP+/+ mice. […] (22G-22H) FAC-sorting analysis of tissue-cultured sutures isolated from of PRX1-creER-EGFP+/+ mice. Suture were explanted and cultured ex vivo.
(§2) WNT inhibitor candidates were identified by looking into cancer studies, as thousands of small molecules have been screened for their potential to inhibit WNT signaling in WNT-activated cancer cells (30). Several molecules have shown inhibition of canonical WNT activity in vitro but only few have been tested in vivo, in mice. Among those tested in vivo, 5 were selected because of their proven efficacy and safety: G007-LK (31), Pyrvinium (25,26), Quercetin (32,33), XAV939 (27), and Niclosamide (34). Actually, Niclosamide and Pyrvinium are anti-helminthic FDA-approved drugs (35,36) and Quercetin is a flavonol found in many fruits and vegetables that is used as an ingredient in supplements, beverages, or foods (33). […] Previous studies indicate that Niclosamide, besides inhibiting the WNT pathway, presents with various additional effects such as uncoupling oxidative phosphorylation and disrupting several different signaling pathways, including the NOTCH, mTORCT, NFkB, and STAT3 pathways (38-44).

[2] = test system: immortalized PRX1 expressing cells isolated from the calvarial sutures of PRX1-creER-EGFP+/+ mice; assay: MTT proliferation assay of immortalized PRX1 expressing cells; type: cell-based, mouse; details: after 48 hours (FIG. 22C)
From the text: as §1
(§3) WNT inhibitor candidates were identified by looking into cancer studies, as thousands of small molecules have been screened for their potential to inhibit WNT signaling in WNT-activated cancer cells (30). Several molecules have shown inhibition of canonical WNT activity in vitro but only few have been tested in vivo, in mice. Among those tested in vivo, 5 were selected because of their proven efficacy and safety: G007-LK (31), Pyrvinium (25,26), Quercetin (32,33), XAV939 (27), and Niclosamide (34). Actually, Niclosamide and Pyrvinium are anti-helminthic FDA-approved drugs (35,36) and Quercetin is a flavonol found in many fruits and vegetables that is used as an ingredient in supplements, beverages, or foods (33). […]

[3] = test system: osteoblast differentiation genes (RUNX2, SP7, Osteocalcin) in immortalized PRX1 expressing cells; assay: Quantitative RT-PCR of osteoblast differentiation genes in immortalized PRX1 expressing cells; type: cell-based, mouse
From the text: as §1, §2

[4] = test system: GFP+ (PRX1 expressing) and GFP- cells of explanted calvarial sutures of PRX1-creER-EGFP+/+ mice; assay: FAC-sorting analysis of tissue-cultured explanted sutures (ex vivo); type: cell-based, mouse
From the text: as §1
However, no increase of GFP-cells (22H) is detected. All above studies (22A-22E) were repeated 2 or 3 times, with consistent results.
as §3, with “(34).” for “(34). Actually, Niclosamide and Pyrvinium are anti-helminthic FDA-approved drugs (35,36) and Quercetin is a flavonol found in many fruits and vegetables that is used as an ingredient in supplements, beverages, or foods (33).”

PRX1 expressing SSCs = assay: In vivo flow cytometry quantification of PRX1 expressing SSCs after IP treatment; set-up: species or system mouse; details: 8-week old mice, 20 mg/Kg IP, 5 days/week
Method: (§4) FIGS. 23A-23D. […] (23A-23C) Flow cytometry was utilized to quantify the number of PRX1 expressing SSCs after treatment with Niclosamide (20 mg/kg of body weight, IP, 5 days/week, for 3 consecutive weeks) or with vehicle (control) in calvarial sutures (23A), in the periosteum of long bones (23B), and in the periodontal ligament of posterior molar teeth (23C). 4 mice/treatment (2 males and 2 females). (23D) Micro-computed tomography was utilized to measure bone mass (BV/TV) in the femurs of male and female mice after treatment with Niclosamide (20 mg/kg of body weight, IP, 5 days/week for 3 consecutive weeks) or with vehicle (control) (n=2). […] To do so, skeletally mature 8-week old mice were treated with intraperitoneal (IP) injections of Niclosamide (20 mg/Kg of body weight) or vehicle (control) 5 days/week, for 3 weeks (FIGS. 23A-23D).

[5] = Micro-computed tomography of femur bone mass (BV/TV) after IP treatment; type: in vivo, mouse; details: male and female mice, 20 mg/Kg IP, 5 days/week, 3 weeks (FIG. 23D)
Method: as §4

[6] = test system: critical size calvarial bone defect; assay: Local delivery in carboxymethylcellulose gel into critical size calvarial bone defect, μCT; type: in vivo, mouse; details: 2 mm defect, 8 week old C57Bl/6 female mice, 10 μL 12% carboxymethylcellulose gel containing 100 μg niclosamide, 4 weeks after surgery, n=3
Method: Immediately after creation of the defect, 10 μL of a 12% carboxymethylcellulose gel (CONTROL) (24A) or 10 μL of a 12% carboxymethylcellulose gel containing 100 μg of niclosamide (TEST) (24B) were implanted within the bone defect. […] Student's t-test was used for statistical evaluation (n=3, ** indicates p<0.01). […] Immediately after creation of the defect, 10 μL of a 12% carboxymethylcellulose gel (CONTROL) or 10 μL of a 12% carboxymethylcellulose gel containing 100 g of niclosamide (TEST) were implanted within the bone defect (FIGS. 24A-24B). Bone regeneration was assessed by means of μCT, 4 weeks after surgery (FIG. 25). Student's t-test was used for statistical evaluation (n=3, ** indicates p<0.01).

[7] = test system: periodontal ligament stem cells expressing Prx1 from mouse incisors; assay: Flow cytometry quantification of Prx1 (GFP) expressing periodontal ligament cells in vitro; type: cell-based; details: 48 hours
From the text: To perform these studies, transgenic mice was utilized expressing green fluorescent protein (GFP) under the Prx1 promoter. Thus, using these transgenic mice, quantification of GFP expressing cells by means of flow cytometry can be utilized to quantify Prx1 expressing cells.

[8] = test system: critical size calvarial bone defect; assay: Local delivery absorbed into a collagen sponge into critical size calvarial bone defect, μCT; type: in vivo, mouse; details: collagen sponge carrying 5 μg or 50 μg
Method: To test whether Niclosamide can induce bone regeneration when delivered by means of a collagen sponge instead of a methylcellulose gel, a critical size calvarial bone defect was created (2 mm in diameter) in the right parietal bone of skeletally mature C57Bl/6 female mice (8 week old mice). Immediately after creation of the defect, 5 μL of a 1 pg/pl solution of Niclosamide (dissolved in DMSO) or 5 μl of a 10 μg/μl solution of Niclosamide (dissolved in DMSO) were absorbed into a 1 mm×1 mm×1 mm collagen sponge. Then, the sponge carrying either 5 μg or 50 μg of Niclosamide was implanted into the calvarial bone defects (n=3). Bone defects of the control groups received collagen sponges absorbed with equal volumes (5 μl) of DMSO only Bone regeneration was assessed by means of μCT, 8 weeks after surgery (FIGS. 27A-27C) 3D rendering, (FIG. 27D) quantitative assessment of the regenerated Bone Volume (BV) within the Total Volume (TV) of the calvarial bone defects).

## Cc1cc(/C=C/c2ccc3cc(N(C)C)ccc3[n+]2C)c(C)n1-c1ccccc1 [Pyrvinium]
[1]; after 24 hours (FIG. 22A)
  proliferation (MTT) of primary PRX1 expressing cells: statistically significant proliferation
[1]; after 48 hours (FIG. 22B)
  proliferation (MTT) of primary PRX1 expressing cells: statistically significant proliferation
[1]
  ability to induce proliferation of primary PRX1 expressing SSCs (screen of 5 WNT inhibitors): able to consistently induce proliferation

## O=c1c(O)c(-c2ccc(O)c(O)c2)oc2cc(O)cc(O)c12 [Quercetin]
[1]
  ability to induce proliferation of primary PRX1 expressing SSCs (screen of 5 WNT inhibitors): able to consistently induce proliferation

## O=C(Nc1ccc([N+](=O)[O-])cc1Cl)c1cc(Cl)ccc1O [Niclosamide]
[1]; after 24 hours (FIG. 22A)
  proliferation (MTT) of primary PRX1 expressing cells: statistically significant proliferation
[1]; after 48 hours (FIG. 22B)
  proliferation (MTT) of primary PRX1 expressing cells: statistically significant proliferation
[1]; comparison with Pyrvinium and Quercetin
  effect on proliferation compared with the other screened molecules: most significant and prolonged effect
[1]
  ability to induce proliferation of primary PRX1 expressing SSCs (screen of 5 WNT inhibitors): able to consistently induce proliferation
[2]
  proliferation (MTT) of immortalized PRX1 expressing cells: could induce proliferation; also recorded: statistically significant proliferation
[3]; FIGS. 22D-22F
  osteoblastic differentiation of PRX1 expressing SSCs (qRT-PCR): inhibits their osteoblastic differentiation
[3]; immortalized PRX1 expressing cells, after 48 hours (FIG. 22D)
  expression of RUNX2 (qRT-PCR): statistically significant downregulation
[3]; immortalized PRX1 expressing cells, after 48 hours (FIG. 22E)
  expression of SP7 (qRT-PCR): statistically significant downregulation
[3]; immortalized PRX1 expressing cells, after 48 hours (FIG. 22F)
  expression of Osteocalcin (OCN) (qRT-PCR): statistically significant downregulation
[4]; 2 weeks of incubation (FIG. 22G)
  GFP+ cells (PRX1 expressing cells) in explanted sutures: proliferation of the PRX1 expressing SSCs was observed; also recorded: statistically significant increase
[4]; 2 weeks of incubation (FIG. 22H)
  GFP- cells (other cells of the sutures) in explanted sutures: could not be detected; also recorded: no increase
PRX1 expressing SSCs; 3 weeks (FIG. 23A)
  proliferation of PRX1 expressing SSCs in the calvarial sutures: induces proliferation
PRX1 expressing SSCs; 3 weeks (FIG. 23B)
  proliferation of PRX1 expressing SSCs in the periosteum of long bones: induces proliferation
PRX1 expressing SSCs; 3 weeks (FIG. 23C)
  proliferation of PRX1 expressing SSCs in the periodontal ligament of the mouse molars: induces proliferation
[5]
  bone mass (BV/TV) of femurs: does not significantly reduce the bone mass
[6]
  bone regeneration by μCT: substantial amount of bone regeneration
[7]; 0.2 μM and 2 μM, more significant increases with higher doses
  number of Prx1 expressing (GFP) cells: increase in number
[7]; 2 μM, flow cytometry (FIG. 26E)
  increase of number of Prx1 expressing (GFP) cells: ~3.5 folds
[8]; 2 mm defect, 8 week old C57Bl/6 female mice, 8 weeks after surgery, n=3, not statistically significant
  regenerated Bone Volume (BV) within Total Volume (TV) of the defect by μCT: trend of increasing of the regenerated bone mass
[8]; 8 weeks
  adverse events / general health: no adverse events were recorded
